Laboratory results from patent publication US11046945B2, “Labeled glutaminase proteins, isolated glutaminase protein mutants, methods of use, and kit” (CORNELL UNIVERSITY, priority 2013, dated 2021).

Biological target: T1, 488-K316E-D391K-R459E-GAC (Mus musculus, UniProt D3Z7P3, D391K/K316E/R459E)
T1 construct: plasmid (residues 72-603 for GAC, 72-674 for KGA); His-tag with thrombin cleavage site (N, cleaved yes); made in house; host or cells: pET23a vector
T1 sequence (D3Z7P3 72-603 isoform D3Z7P3-2 K316E/D391K/R459E): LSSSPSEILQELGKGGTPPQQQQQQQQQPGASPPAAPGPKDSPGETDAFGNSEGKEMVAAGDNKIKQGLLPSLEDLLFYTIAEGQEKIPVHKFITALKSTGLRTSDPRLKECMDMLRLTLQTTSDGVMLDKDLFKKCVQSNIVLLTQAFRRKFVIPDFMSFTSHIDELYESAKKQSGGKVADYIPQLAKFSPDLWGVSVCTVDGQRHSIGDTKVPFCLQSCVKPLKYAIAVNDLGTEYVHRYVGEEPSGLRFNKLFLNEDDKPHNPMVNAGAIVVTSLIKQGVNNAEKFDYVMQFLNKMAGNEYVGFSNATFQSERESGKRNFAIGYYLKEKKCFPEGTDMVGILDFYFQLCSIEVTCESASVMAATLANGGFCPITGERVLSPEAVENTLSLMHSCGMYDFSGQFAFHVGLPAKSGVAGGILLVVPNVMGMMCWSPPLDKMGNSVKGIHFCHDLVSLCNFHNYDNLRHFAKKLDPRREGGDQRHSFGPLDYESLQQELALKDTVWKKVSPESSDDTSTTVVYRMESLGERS
Experiment: Real-time binding read-out by fluorescence quenching, monomer mutant
Conditions: 20 nM 488-labeled protein, 968 titration
Method: Real-time fluorescence monitoring of 488-GAC fluorescence and NADH fluorescence was performed on a Varian Carry Eclipse Fluorometer, whereas small molecule inhibition and binding titrations were performed in a 96-well format using Grenier non-binding 96-well plates in a Tecan Saphire absorbance and fluorescence plate reader. Samples for monitoring real time binding of 968 to 488-GAC were prepared by adding 10 μL […] (490 nm excitation/520 nm emission). Similarly, this method was replicated for monitoring real time binding of 968 to KGA and mutant forms of GAC, namely 488-D391K-GAC and 488-K316E-D391K-R459E-GAC. Titrations of 968 with mutant forms of GAC were done in triplicate and quantified by the following equation
[formula] where F is the normalized fluorescence at given drug concentration (i.e., F/F0), and Fsat is the normalized fluorescence at saturating concentrations of drug, as shown in FIG. 7A. […] 10 nM WT GAC was added and allowed to equilibrate 2 minutes before beginning to monitor fluorescence of 488-GAC (490 nm excitation, 520 nm emission) and NADH fluorescence (340 nm excitation, 490 nm emission). […] The activity of GAC was indirectly measured by the NADH produced by the added glutamate dehydrogenase, which converts the product of glutaminase activity, glutamate, to α-ketoglutarate and ammonia through reducing NAD^+ to NADH. […]

CN(C)c1ccc(C2Nc3ccc4ccccc4c3C3=C2C(=O)CC(C)(C)C3)cc1Br (stereo not shown) [compound 968]
binding to monomeric GAC (K316E-D391K-R459E) mutant, relative affinity: highest affinity
